Assay results reported in patent US4927831A, “Spiro-isoquinoline-pyrrolidine tetrones and analogs thereof useful as aldose reductase inhibitors” (American Home Products, priority 1989, dated 1990).
Where two headings read alike, the source gives them in different places.

Assays:
aldose reductase = target: T1, aldose reductase (Bos taurus, UniProt P16116); assay: in vitro aldose reductase inhibition (modified Hayman and Kinoshita; enzyme from bovine lens); format: biochemical; settings: read-out: % Inhibition IN VITRO
T1 construct: preparation of the enzyme from bovine lens; from tissue; host or cells: bovine lens
Description: Only two minor reagent changes were made: (a) The rinsing mixture was an aqueous 5% (w/v) trichloroacetic acid solution and (b) the stock solution was prepared by dissolving 25 mg of dulcitol in 100 ml of an aqueous trichloroacetic acid solution. [N.B.: For each experiment the average value found in the tissue from rats fed the glucose diet was subtracted from the individual values found in the corresponding tissue in galactose-fed rats to obtain the amount of polyol accumulated.] […] In the present case the procedure of Hayman and Kinoshita was modified in that the final chromatography step was omitted in the preparation of the enzyme from bovine lens. […] The figures under L and N represent the percentage decrease of dulcitol accumulation in the tissues of the lens and sciatic nerve, respectively, for treated rats as compared to untreated rats.

[1] = test system: dulcitol accumulation in the sciatic nerve; assay: % lowering of dulcitol accumulation in sciatic nerve (N) of galactosemic rats; format: in vivo, Sprague-Dawley; set-up: key: NS: statistically nonsignificant change; settings: 4 days
From the text: (§1) The aldose reductase inhibiting property of the compounds of this invention and the utilization of the compounds in preventing, diminishing and alleviating diabetic complications are demonstrable in experiments using galactosemic rats, see Dvornik et al., Science, 182, 1146 (1973). Such experiments are exemplified hereinbelow after the listing of the following general comments pertaining to these experiments:
(§2) (a) Four or more groups of six male rats, 50-70 g, Sprague-Dawley strain, were used. The first group, the control group, was fed a mixture of laboratory chow (rodent Laboratory Chow, Purina) and glucose at 20% (w/w %) concentration. An untreated galactosemic group was fed a similar diet in which galactose was substituted for glucose. The third group was fed a diet prepared by mixing a given amount of the test compound with the galactose containing diet. The concentration of galactose in the diet of the treated groups was the same as that for the untreated galactosemic group.
(§3) (b) After four days, the animals were killed by euthanization. Both the lens and sciatic nerve were removed, weighed and stored frozen for polyol determination.
(§4) (c) The polyol determination was performed by a modification of the procedure of M. Kraml and L. Cosyns, Clin. Biochem., 2,373 (1969). Only two minor reagent changes were made: (a) The rinsing mixture was an aqueous 5% (w/v) trichloroacetic acid solution and (b) the stock solution was prepared by dissolving 25 mg of dulcitol in 100 ml of an aqueous trichloroacetic acid solution. [N.B.: For each experiment the average value found in the tissue from rats fed the glucose diet was subtracted from the individual values found in the corresponding tissue in galactose-fed rats to obtain the amount of polyol accumulated.] The aldose reductase inhibiting effects of the compounds of formula (I) were also tested by employing an in vitro testing procedure similar to that described by S. Hayman and J.H. Kinoshita, J. Biol. Chem., 240,877 (1965). In the present case the procedure of Hayman and Kinoshita was modified in that the final chromatography step was omitted in the preparation of the enzyme from bovine lens.
(§5) The figures under L and N represent the percentage decrease of dulcitol accumulation in the tissues of the lens and sciatic nerve, respectively, for treated rats as compared to untreated rats.

[2] = test system: dulcitol accumulation in the lens; assay: % lowering of dulcitol accumulation in lens (L) of galactosemic rats; format: in vivo, Sprague-Dawley; set-up: key: NS: statistically nonsignificant change; settings: 4 days
From the text: as §1, §2, §3, §4, §5

SMILES | inhibition at 0.04 µM (aldose reductase; 4 × 10^-8 M) | inhibition at 10 µM (aldose reductase; 10^-5 M) | inhibition at 1 µM (aldose reductase; 10^-6 M) | inhibition at 0.1 µM (aldose reductase; 10^-7 M) | % Lowering Dulcitol Accumulation IN VIVO, N (sciatic nerve) ([1]; 1.0 mg/kg in diet) | % Lowering Dulcitol Accumulation IN VIVO, L (lens) ([2]; 1.0 mg/kg in diet) | inhibition at 1 µM (aldose reductase) | inhibition at 10 µM (aldose reductase) | further results
O=C1CC2(C(=O)N1)C(=O)N(Cc1ccc(Cl)c(Cl)c1)C(=O)c1ccccc12 (centres unmarked) [2-[(3,4-Dichlorophenyl)methyl]spiro[isoquinoline-4(1H),3'-pyrrolidine]-1,2',3,5'(2H)-tetrone] | 42% | 100% | 97% | 87% | 64.0% | 10.0% |  |  | % Lowering Dulcitol Accumulation IN VIVO, N (sciatic nerve) ([1]; 3.0 mg/kg in diet): 76.0%; % Lowering Dulcitol Accumulation IN VIVO, N (sciatic nerve) ([1]; 10.0 mg/kg in diet): 92.0%; % Lowering Dulcitol Accumulation IN VIVO, N (sciatic nerve) ([1]; 48.0 mg/kg in diet): 85.0%; % Lowering Dulcitol Accumulation IN VIVO, L (lens) ([2]; 3.0 mg/kg in diet): 18.0%; % Lowering Dulcitol Accumulation IN VIVO, L (lens) ([2]; 10.0 mg/kg in diet): 35.0%; % Lowering Dulcitol Accumulation IN VIVO, L (lens) ([2]; 48.0 mg/kg in diet): 41.0%
O=C1CC2(C(=O)N1)C(=O)N(Cc1ccc(Br)cc1F)C(=O)c1ccccc12 (centres unmarked) [2-[(4-Bromo-2-fluorophenyl)methyl]spiro[isoquinoline-4(1H),3'-pyrrolidine]-1,2',3,5'(2H)-tetrone] | 51% |  |  |  | 95.0% | 16.0% | 94% | 96% | inhibition at 0.1 µM (aldose reductase): 94%; % Lowering Dulcitol Accumulation IN VIVO, N (sciatic nerve) ([1]; 0.1 mg/kg in diet): 26.0%; % Lowering Dulcitol Accumulation IN VIVO, N (sciatic nerve) ([1]; 0.3 mg/kg in diet): 60.0%; % Lowering Dulcitol Accumulation IN VIVO, N (sciatic nerve) ([1]; 0.5 mg/kg in diet): 82.0%; % Lowering Dulcitol Accumulation IN VIVO, L (lens) ([2]; 0.1 mg/kg in diet): NS; % Lowering Dulcitol Accumulation IN VIVO, L (lens) ([2]; 0.3 mg/kg in diet): NS; % Lowering Dulcitol Accumulation IN VIVO, L (lens) ([2]; 0.5 mg/kg in diet): 12.0%
CN1C(=O)c2ccc(Br)cc2C2(CC(=O)NC2=O)C1=O (centres unmarked) [6-Br H CH3, 6-Bromo-2-methylspiro[isoquinoline-4(1H),3'-pyrrolidine]-1,2',3,5'(2H)-tetrone] | 43% | 100% | 100% | 85% | 54% | NS |  |  | 
CN1C(=O)c2ccc(Cl)cc2C2(CC(=O)NC2=O)C1=O (centres unmarked) [6-Cl H CH3, 6-Chloro-2-methylspiro[isoquinoline-4(1H)3'-pyrrolidine]-1,2',3,5'(2H)-tetrone] | 43% |  |  | 73% | 75% | 33% | 94% | 93% | % Lowering Dulcitol Accumulation IN VIVO, N (sciatic nerve) ([1]; 3.0 mg/kg in diet): 75%; % Lowering Dulcitol Accumulation IN VIVO, L (lens) ([2]; 3.0 mg/kg in diet): 59%
O=C1C[C@@]2(C(=O)N1)C(=O)N(Cc1ccc(Br)cc1F)C(=O)c1ccccc12 [(R)-(+)-2-[(4-Bromo-2-fluorophenyl)methyl]spiro[isoquinoline-4(1H),3'-pyrrolidine]-1,2',3,5'(2H)-tetrone] | 87% |  |  | 91% |  |  | 93% | 96% | % Lowering Dulcitol Accumulation IN VIVO, N (sciatic nerve) ([1]; 0.5 mg/kg in diet): 83%; % Lowering Dulcitol Accumulation IN VIVO, N (sciatic nerve) ([1]; 5.1 mg/kg in diet): 100%; % Lowering Dulcitol Accumulation IN VIVO, L (lens) ([2]; 0.5 mg/kg in diet): NS; % Lowering Dulcitol Accumulation IN VIVO, L (lens) ([2]; 5.1 mg/kg in diet): NS
O=C1C[C@@]2(C(=O)N1)C(=O)N(Cc1ccc(Br)cc1F)C(=O)c1ccc(F)cc12 [(R)-(+)-[2-[(4-Bromo-2-fluorophenyl)methyl]-6-fluoro]spiro[isoquinoline-4(1H),3'-pyrrolidine]-1,2',3,5'(2H)-tetrone] |  |  |  |  |  |  | 95% | 99% | inhibition at 0.04 µM (aldose reductase): 93%; inhibition at 0.1 µM (aldose reductase): 93%; % Lowering Dulcitol Accumulation IN VIVO, N (sciatic nerve) ([1]; 0.4 mg/kg in diet): 100%; % Lowering Dulcitol Accumulation IN VIVO, N (sciatic nerve) ([1]; 0.8 mg/kg in diet): 100%; % Lowering Dulcitol Accumulation IN VIVO, L (lens) ([2]; 0.4 mg/kg in diet): 31%; % Lowering Dulcitol Accumulation IN VIVO, L (lens) ([2]; 0.8 mg/kg in diet): 26%
O=C1C[C@]2(C(=O)N1)C(=O)N(Cc1ccc(Br)cc1F)C(=O)c1ccccc12 [(S)-(-)-2-[(4-Bromo-2-fluorophenyl)methyl]spiro[isoquinoline-4(1H),3'-pyrrolidine]-1,2',3,5'(2H)-tetrone] |  | 87% | 51% |  |  |  |  |  | % Lowering Dulcitol Accumulation IN VIVO, N (sciatic nerve) ([1]; 0.5 mg/kg in diet): NS; % Lowering Dulcitol Accumulation IN VIVO, N (sciatic nerve) ([1]; 4.8 mg/kg in diet): 83%; % Lowering Dulcitol Accumulation IN VIVO, L (lens) ([2]; 0.5 mg/kg in diet): NS; % Lowering Dulcitol Accumulation IN VIVO, L (lens) ([2]; 4.8 mg/kg in diet): NS
O=C1C[C@]2(C(=O)N1)C(=O)N(Cc1ccc(Br)cc1F)C(=O)c1ccc(F)cc12 [(S)-(-)-[2-[(4-Bromo-2-fluorophenyl)methyl]-6-fluoro]spiro[isoquinoline-4(1H),3'-pyrrolidine]-1,2',3,5'(2H)-tetrone] |  |  |  |  |  |  | 97% | 98% | inhibition at 0.04 µM (aldose reductase): 29%; inhibition at 0.1 µM (aldose reductase): 46%; % Lowering Dulcitol Accumulation IN VIVO, N (sciatic nerve) ([1]; 0.4 mg/kg in diet): 40%; % Lowering Dulcitol Accumulation IN VIVO, N (sciatic nerve) ([1]; 0.8 mg/kg in diet): 70%; % Lowering Dulcitol Accumulation IN VIVO, L (lens) ([2]; 0.4 mg/kg in diet): NS; % Lowering Dulcitol Accumulation IN VIVO, L (lens) ([2]; 0.8 mg/kg in diet): 21%
CN1C(=O)c2cc(Cl)ccc2C2(CC(=O)NC2=O)C1=O (centres unmarked) [H 7-Cl CH3, 7-Chloro-2-methylspiro[isoquinoline-4(1H)3'-pyrrolidine]-1,2',3,5'(2H)-tetrone] | 34% | 95% | 92% | 61% |  |  |  |  | % Lowering Dulcitol Accumulation IN VIVO, N (sciatic nerve) ([1]; 3.0 mg/kg in diet): 21%; % Lowering Dulcitol Accumulation IN VIVO, L (lens) ([2]; 3.0 mg/kg in diet): 14%
CCCN1C(=O)c2ccccc2C2(CC(=O)NC2=O)C1=O (centres unmarked) [H H (CH2)2 CH3, 2-Propylspiro[isoquinoline-4(1H),3'-pyrrolidine]-1,2',3,5'(2H)-tetrone] | 8% |  | 62% | 19% |  |  |  | 94% | % Lowering Dulcitol Accumulation IN VIVO, N (sciatic nerve) ([1]; 11 mg/kg in diet): NS; % Lowering Dulcitol Accumulation IN VIVO, L (lens) ([2]; 11 mg/kg in diet): NS
CCCCN1C(=O)c2ccccc2C2(CC(=O)NC2=O)C1=O (centres unmarked) [H H (CH2)3 CH3, 2-Butylspiro[isoquinoline-4(1H),3'-pyrrolidine]-1,2',3,5'(2H)-tetrone] | 19% | 99% |  | 17% |  |  | 86% |  | % Lowering Dulcitol Accumulation IN VIVO, N (sciatic nerve) ([1]; 10.0 mg/kg in diet): NS; % Lowering Dulcitol Accumulation IN VIVO, L (lens) ([2]; 10.0 mg/kg in diet): NS
CCN1C(=O)c2ccccc2C2(CC(=O)NC2=O)C1=O (centres unmarked) [H H CH2 CH3, 2-Ethylspiro[isoquinoline-4(1H),3'-pyrrolidine]-1,2',3,5'(2H)-tetrone] | 17% |  | 76% | 27% |  |  |  | 96% | % Lowering Dulcitol Accumulation IN VIVO, N (sciatic nerve) ([1]; 11 mg/kg in diet): NS; % Lowering Dulcitol Accumulation IN VIVO, L (lens) ([2]; 11 mg/kg in diet): NS
